Results published in patent US20250059198A1, “BRM DEGRADING COMPOUNDS AND ASSOCIATED METHODS OF USE” (Arvinas Operations, Inc., priority 2021, published 2025).

Target: T1, BRM (Homo sapiens, UniProt P51531)
T1 construct: Western Blot Screen of BRM Degradation in SW1573 Cells; endogenous in cells; host or cells: SW1573 cells
Test: BRM degradation (Dmax and DC50) in SW1573 cells, Western blot screen / In-Cell Western screen
Type: cell-based
Conditions: overnight (18-20 hours) treatment; for Dmax: read-out: Dmax (%)** (% degraded)
Outline: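 Dmax and DC50 were derived from BRM levels normalised to an alpha-tubulin control, measured by chemiluminescent Western blotting of lysates or by PFA-fixed In-Cell Western on LI-COR Odyssey. SW1573 cells received compound overnight (18–20 h, 0.1% DMSO final).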

T1 sequence (P51531 whole entry): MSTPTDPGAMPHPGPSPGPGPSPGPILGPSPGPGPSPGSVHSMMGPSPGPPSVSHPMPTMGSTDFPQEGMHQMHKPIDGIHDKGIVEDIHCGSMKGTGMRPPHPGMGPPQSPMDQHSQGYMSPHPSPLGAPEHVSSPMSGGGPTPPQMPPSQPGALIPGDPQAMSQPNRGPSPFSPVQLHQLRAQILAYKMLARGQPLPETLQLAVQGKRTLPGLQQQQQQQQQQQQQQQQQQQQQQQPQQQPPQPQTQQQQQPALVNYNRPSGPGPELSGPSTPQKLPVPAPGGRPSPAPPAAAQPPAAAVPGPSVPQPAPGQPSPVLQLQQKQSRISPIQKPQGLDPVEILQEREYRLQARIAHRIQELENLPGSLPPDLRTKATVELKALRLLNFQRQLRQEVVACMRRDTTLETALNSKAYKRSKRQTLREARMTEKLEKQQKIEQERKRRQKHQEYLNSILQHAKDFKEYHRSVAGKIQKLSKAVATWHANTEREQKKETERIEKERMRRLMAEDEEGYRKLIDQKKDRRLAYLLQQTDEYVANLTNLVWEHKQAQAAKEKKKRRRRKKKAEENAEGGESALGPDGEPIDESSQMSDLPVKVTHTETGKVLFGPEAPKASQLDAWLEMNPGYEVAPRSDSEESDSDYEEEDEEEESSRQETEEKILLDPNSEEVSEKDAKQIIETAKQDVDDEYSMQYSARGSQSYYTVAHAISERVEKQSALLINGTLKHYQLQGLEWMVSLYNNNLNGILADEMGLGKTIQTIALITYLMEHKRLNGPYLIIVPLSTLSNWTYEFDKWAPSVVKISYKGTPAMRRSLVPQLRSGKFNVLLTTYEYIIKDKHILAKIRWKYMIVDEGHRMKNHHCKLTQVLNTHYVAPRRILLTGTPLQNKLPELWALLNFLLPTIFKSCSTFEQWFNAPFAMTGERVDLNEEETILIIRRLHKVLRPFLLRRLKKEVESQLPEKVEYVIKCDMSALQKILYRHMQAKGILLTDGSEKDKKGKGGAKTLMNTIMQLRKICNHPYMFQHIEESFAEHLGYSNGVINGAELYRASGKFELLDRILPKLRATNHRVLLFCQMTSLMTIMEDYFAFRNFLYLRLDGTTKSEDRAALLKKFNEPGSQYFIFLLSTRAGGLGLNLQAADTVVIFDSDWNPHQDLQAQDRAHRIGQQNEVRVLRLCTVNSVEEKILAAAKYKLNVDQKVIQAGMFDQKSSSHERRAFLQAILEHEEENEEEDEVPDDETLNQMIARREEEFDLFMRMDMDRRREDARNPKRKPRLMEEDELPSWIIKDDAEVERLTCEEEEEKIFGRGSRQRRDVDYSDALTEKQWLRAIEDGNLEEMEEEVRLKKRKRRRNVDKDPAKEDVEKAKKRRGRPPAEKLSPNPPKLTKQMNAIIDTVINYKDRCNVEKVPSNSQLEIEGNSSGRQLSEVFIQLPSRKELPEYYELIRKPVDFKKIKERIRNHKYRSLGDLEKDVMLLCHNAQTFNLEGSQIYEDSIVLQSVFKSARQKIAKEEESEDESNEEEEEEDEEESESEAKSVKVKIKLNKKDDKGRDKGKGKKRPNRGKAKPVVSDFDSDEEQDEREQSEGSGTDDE

Row | Structure (SMILES) | DC50 | Dmax
1 | CC(C)[C@@H](C(=O)N1C[C@H](O)C[C@H]1C(=O)N[C@@H](C)c1ccc(C#N)cc1)c1cc(N2CCC(CN3CCC(O[C@H]4C[C@H](Oc5cc(N6CC7CC(C6)N7c6cc(-c7ccccc7O)nnc6N)ccn5)C4)CC3)CC2)no1 [Compound 26, (2S,4R)-N-[(1S)-1-(4-cyanophenyl)ethyl]-4-hydroxy-1-[(2R)-3-methyl-2-{3-[4-({4-[(1r,3r)-3-[(4-{6-[3-amino-6-(2-hydroxyphenyl)pyridazin-4-yl]-3,6-diazabicyclo[3.1.1]heptan-3-yl}pyridin-2-yl)oxy]cyclobutoxy]piperidin-1-yl}methyl)piperidin-1-yl]-1,2-oxazol-5-yl}butanoyl]pyrrolidine-2-carboxamide] | 2.5 to 10 nM | > 75%
2 | Cc1ncsc1-c1ccc([C@H](C)NC(=O)[C@@H]2C[C@@H](O)CN2C(=O)[C@@H](c2cc(O[C@H]3C[C@H](CN4CCC(O[C@H]5C[C@H](N6CCOC7(CCN(c8cc(-c9ccccc9O)nnc8N)CC7)C6)C5)CC4)C3)no2)C(C)C)cc1 [Compound 68, (2S,4R)-4-hydroxy-N-[(1S)-1-[4-(4-methyl-1,3-thiazol-5-yl)phenyl]ethyl]-1-[(2R)-3-methyl-2-{3-[(1r,3r)-3-({4-[(1r,3r)-3-{9-[3-amino-6-(2-hydroxyphenyl)pyridazin-4-yl]-1-oxa-4,9-diazaspiro[5.5]undecan-4-yl}cyclobutoxy]piperidin-1-yl}methyl)cyclobutoxy]-1,2-oxazol-5-yl}butanoyl]pyrrolidine-2-carboxamide] | < 2.5 nM | > 75%
3 | Cc1ncsc1-c1ccc([C@H](C)NC(=O)[C@@H]2C[C@@H](O)CN2C(=O)[C@H](c2cc(N3CCC(n4cnc(CN5CCC(O[C@H]6C[C@H](Oc7cc(N8C9CCC8CN(c8cc(-c%10ccccc%10O)nnc8N)C9)ccn7)C6)CC5)c4)CC3)no2)C(C)C)cc1 [Compound 12, (2S,4R)-4-hydroxy-N-[(1S)-1-[4-(4-methyl-1,3-thiazol-5-yl)phenyl]ethyl]-1-[(2S)-3-methyl-2-(3-{4-[4-({4-[(1r,3r)-3-[(4-{3-[3-amino-6-(2-hydroxyphenyl)pyridazin-4-yl]-3,8-diazabicyclo[3.2.1]octan-8-yl}pyridin-2-yl)oxy]cyclobutoxy]piperidin-1-yl}methyl)-1H-imidazol-1-yl]piperidin-1-yl}-1,2-oxazol-5-yl)butanoyl]pyrrolidine-2-carboxamide] | ≥ 30 nM | 
4 | CC(C)[C@H](C(=O)N1C[C@H](O)C[C@H]1C(=O)N[C@@H](C)c1ccc(-c2ccnn2C)cc1)c1cc(N2CCC(CN3CCC(O[C@H]4C[C@H](Oc5cc(N6CCN(c7cc(-c8ccccc8O)nnc7N)CC6)ccn5)C4)CC3)CC2)no1 [Compound 2, (2S,4R)-4-hydroxy-N-[(1S)-1-[4-(1-methyl-1H-pyrazol-5-yl)phenyl]ethyl]-1-[(2S)-3-methyl-2-{3-[4-({4-[(1r,3r)-3-[(4-{4-[3-amino-6-(2-hydroxyphenyl)pyridazin-4-yl]piperazin-1-yl}pyridin-2-yl)oxy]cyclobutoxy]piperidin-1-yl}methyl)piperidin-1-yl]-1,2-oxazol-5-yl}butanoyl]pyrrolidine-2-carboxamide] | ≥ 30 nM | 
5 | Cc1ncsc1-c1ccc([C@H](CC(=O)N2CCC(CN3CCC(O[C@H]4C[C@H](Oc5cc(N6C7CCC6CN(c6cc(-c8ccccc8O)nnc6N)C7)ccn5)C4)CC3)CC2)NC(=O)[C@@H]2C[C@@H](O)CN2C(=O)[C@H](C(C)C)N2Cc3ccccc3C2=O)cc1 [Compound 38, (2S,4R)-4-hydroxy-N-[(1S)-1-[4-(4-methyl-1,3-thiazol-5-yl)phenyl]-3-oxo-3-[4-({4-[(1r,3r)-3-[(4-{3-[3-amino-6-(2-hydroxyphenyl)pyridazin-4-yl]-3,8-diazabicyclo[3.2.1]octan-8-yl}pyridin-2-yl)oxy]cyclobutoxy]piperidin-1-yl}methyl)piperidin-1-yl]propyl]-1-[(2S)-3-methyl-2-(1-oxo-2,3-dihydro-1H-isoindol-2-yl)butanoyl]pyrrolidine-2-carboxamide] | < 2.5 nM | > 75%
6 | Cc1ncsc1-c1ccc([C@H](C)NC(=O)[C@@H]2C[C@@H](O)CN2C(=O)[C@@H](c2cc(N3CCC(CN4CCC5(CC4)CC(N4CCC[C@@H](CN6C7CCC6CN(c6cc(-c8ccccc8O)nnc6N)C7)C4)C5)CC3)no2)C(C)C)cc1 [Compound 70, (2S,4R)-1-[(2R)-2-{3-[4-({2-[(3R)-3-({3-[3-amino-6-(2-hydroxyphenyl)pyridazin-4-yl]-3,8-diazabicyclo[3.2.1]octan-8-yl}methyl)piperidin-1-yl]-7-azaspiro[3.5]nonan-7-yl}methyl)piperidin-1-yl]-1,2-oxazol-5-yl}-3-methylbutanoyl]-4-hydroxy-N-[(1S)-1-[4-(4-methyl-1,3-thiazol-5-yl)phenyl]ethyl]pyrrolidine-2-carboxamide] | < 2.5 nM | > 75%
7 | Cc1ncsc1-c1ccc([C@H](C)NC(=O)[C@@H]2C[C@@H](O)CN2C(=O)[C@@H](c2cc(N3C4CCC3CC(CN3CCC(O[C@H]5C[C@H](Oc6cc(N7C8CCC7CN(c7cc(-c9ccccc9O)nnc7N)C8)ccn6)C5)CC3)C4)no2)C(C)C)cc1 (stereo partly drawn) [Compound 21, (2S,4R)-4-hydroxy-N-[(1S)-1-[4-(4-methyl-1,3-thiazol-5-yl)phenyl]ethyl]-1-[(2R)-3-methyl-2-{3-[3-({4-[(1r,3r)-3-[(4-{3-[3-amino-6-(2-hydroxyphenyl)pyridazin-4-yl]-3,8-diazabicyclo[3.2.1]octan-8-yl}pyridin-2-yl)oxy]cyclobutoxy]piperidin-1-yl}methyl)-8-azabicyclo[3.2.1]octan-8-yl]-1,2-oxazol-5-yl}butanoyl]pyrrolidine-2-carboxamide] | < 2.5 nM | > 75%
8 | Cc1ncsc1-c1ccc([C@H](C)NC(=O)[C@@H]2C[C@@H](O)CN2C(=O)[C@@H](c2cc(N3CCC(CN4CCC(O[C@H]5C[C@H](N6CCC(C(C)c7cn(-c8cc(-c9ccccc9O)nnc8N)cn7)CC6)C5)CC4)CC3)no2)C(C)C)cc1 (stereo partly drawn) [Compound 85, (2S,4R)-4-hydroxy-N-[(1S)-1-[4-(4-methyl-1,3-thiazol-5-yl)phenyl]ethyl]-1-[(2R)-3-methyl-2-{3-[4-({4-[(1r,3r)-3-[4-(1-{1-[3-amino-6-(2-hydroxyphenyl)pyridazin-4-yl]-1H-imidazol-4-yl}ethyl)piperidin-1-yl]cyclobutoxy]piperidin-1-yl}methyl)piperidin-1-yl]-1,2-oxazol-5-yl}butanoyl]pyrrolidine-2-carboxamide] | ≥ 30 nM | 
9 | Cc1ncsc1-c1ccc([C@H](C)NC(=O)[C@@H]2C[C@@H](O)CN2C(=O)[C@@H](c2cc(N3CCC(CN4CCC(CN5CCC6(CC5)CC(N5CCC(C(C)n7cc(-c8cc(-c9ccccc9O)nnc8N)cn7)CC5)C6)CC4)CC3)no2)C(C)C)cc1 (stereo partly drawn) [Compound 31, (2S,4R)-1-[(2R)-2-[3-(4-{[4-({2-[4-(1-{4-[3-amino-6-(2-hydroxyphenyl)pyridazin-4-yl]-1H-pyrazol-1-yl}ethyl)piperidin-1-yl]-7-azaspiro[3.5]nonan-7-yl}methyl)piperidin-1-yl]methyl}piperidin-1-yl)-1,2-oxazol-5-yl]-3-methylbutanoyl]-4-hydroxy-N-[(1S)-1-[4-(4-methyl-1,3-thiazol-5-yl)phenyl]ethyl]pyrrolidine-2-carboxamide] | < 2.5 nM | > 75%
10 | Cc1ncsc1-c1ccc([C@H](C)NC(=O)[C@@H]2C[C@@H](O)CN2C(=O)[C@@H](c2cc(N3CCC(CN4CC[C@H](Oc5cc(N6C7CCC6CN(c6cc(-c8ccccc8O)nnc6N)C7)ccn5)[C@@H](F)C4)CC3)no2)C(C)C)cc1 [Compound 60, (2S,4R)-1-[(2R)-2-[3-(4-{[(3S,4S)-4-[(4-{3-[3-amino-6-(2-hydroxyphenyl)pyridazin-4-yl]-3,8-diazabicyclo[3.2.1]octan-8-yl}pyridin-2-yl)oxy]-3-fluoropiperidin-1-yl]methyl}piperidin-1-yl)-1,2-oxazol-5-yl]-3-methylbutanoyl]-4-hydroxy-N-[(1S)-1-[4-(4-methyl-1,3-thiazol-5-yl)phenyl]ethyl]pyrrolidine-2-carboxamide] | < 2.5 nM | > 75%
11 | Cc1ncsc1-c1ccc([C@H](C)NC(=O)[C@@H]2C[C@@H](O)CN2C(=O)[C@@H](c2cc(N3CCC(O[C@H]4CC[C@@H](Oc5cc(N6C7CCC6CN(c6cc(-c8ccccc8O)nnc6N)C7)ccn5)CC4)CC3)no2)C(C)C)cc1 [Compound 80, (2S,4R)-4-hydroxy-N-[(1S)-1-[4-(4-methyl-1,3-thiazol-5-yl)phenyl]ethyl]-1-[(2R)-3-methyl-2-[3-(4-{[(1s,4s)-4-[(4-{3-[3-amino-6-(2-hydroxyphenyl)pyridazin-4-yl]-3,8-diazabicyclo[3.2.1]octan-8-yl}pyridin-2-yl)oxy]cyclohexyl]oxy}piperidin-1-yl)-1,2-oxazol-5-yl]butanoyl]pyrrolidine-2-carboxamide] | < 2.5 nM | > 75%
12 | Cc1ncsc1-c1ccc([C@H](C)NC(=O)[C@@H]2C[C@@H](O)CN2C(=O)[C@@H](c2cc(N3CCC(CN4CCC5(CC4)CC(N4CCN(C)[C@H](CN6C7CCC6CN(c6cc(-c8ccccc8O)nnc6N)C7)C4)C5)CC3)no2)C(C)C)cc1 [Compound 132, (2S,4R)-1-[(2R)-2-{3-[4-({2-[(3S)-3-({3-[3-amino-6-(2-hydroxyphenyl)pyridazin-4-yl]-3,8-diazabicyclo[3.2.1]octan-8-yl}methyl)-4-methylpiperazin-1-yl]-7-azaspiro[3.5]nonan-7-yl}methyl)piperidin-1-yl]-1,2-oxazol-5-yl}-3-methylbutanoyl]-4-hydroxy-N-[(1S)-1-[4-(4-methyl-1,3-thiazol-5-yl)phenyl]ethyl]pyrrolidine-2-carboxamide] | < 2.5 nM | > 75%
